Among the data in publication PMC4546632, “Active Transport of Phosphorylated Carbohydrates Promotes Intestinal Colonization and Transmission of a Bacterial Pathogen” (PLoS Pathogens, 2015) are Kd values, retold here.

Where two headings read alike, the source gives them in different places.

What all share (conditions): 20 mM Tris pH 8, 100 mM NaCl
For experiment [1], the target named is T1, AfuA (Actinobacillus pleuropneumoniae, UniProt A3N294).
T1 construct: pET26b, periplasmic expression in E. coli (osmotic shock), N-terminal 6xHis tag cleaved by thrombin
The experiment in a line: isothermal titration calorimetry. Format: binding. The text has this: isothermal titration calorimetry on AfuA
For orientation: Isothermal titration calorimetry measures the heat released or taken up as one component is titrated into another.

The target of another experiment is T2, C. rodentium AfuA (Citrobacter rodentium, UniProt D2TKU7).
T2 construct: recombinant AfuA; construct details only in supplement
The experiment in a line: isothermal titration calorimetry. The experiment is classed as binding. The text has this:
isothermal titration calorimetry on C. rodentium AfuA | These amounts exceed the Kd of C. rodentium AfuA for G6P or F6P

Experiment [2] deals with AfuA (Actinobacillus pleuropneumoniae, UniProt A3N294, S64D).
Experiment [3] concerns the target AfuA (Actinobacillus pleuropneumoniae, UniProt A3N294, S64A).
Experiment [4] deals with AfuA (Actinobacillus pleuropneumoniae, UniProt A3N294, T177A).
Chain of AfuA (Actinobacillus pleuropneumoniae, UniProt A3N294, T177A) (A3N294 28-346 T177A): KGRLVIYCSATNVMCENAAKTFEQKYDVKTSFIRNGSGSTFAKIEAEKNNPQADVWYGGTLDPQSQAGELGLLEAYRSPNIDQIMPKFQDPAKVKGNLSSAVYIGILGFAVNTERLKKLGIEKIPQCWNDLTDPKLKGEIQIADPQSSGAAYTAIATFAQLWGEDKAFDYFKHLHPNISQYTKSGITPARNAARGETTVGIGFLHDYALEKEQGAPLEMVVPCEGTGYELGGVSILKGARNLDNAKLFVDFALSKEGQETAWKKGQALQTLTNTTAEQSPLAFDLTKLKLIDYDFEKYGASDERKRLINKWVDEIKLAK

T1 sequence (A3N294 entry or part of it): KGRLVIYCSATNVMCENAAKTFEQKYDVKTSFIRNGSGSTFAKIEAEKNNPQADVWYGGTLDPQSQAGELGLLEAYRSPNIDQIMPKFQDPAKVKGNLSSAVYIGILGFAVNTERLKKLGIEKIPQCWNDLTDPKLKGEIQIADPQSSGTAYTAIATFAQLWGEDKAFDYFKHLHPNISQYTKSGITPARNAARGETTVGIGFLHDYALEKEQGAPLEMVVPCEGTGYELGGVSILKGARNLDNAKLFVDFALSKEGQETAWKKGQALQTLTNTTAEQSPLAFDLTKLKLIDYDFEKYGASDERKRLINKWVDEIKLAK
Chain of AfuA (Actinobacillus pleuropneumoniae, UniProt A3N294, S64D) (A3N294 28-346 S64D): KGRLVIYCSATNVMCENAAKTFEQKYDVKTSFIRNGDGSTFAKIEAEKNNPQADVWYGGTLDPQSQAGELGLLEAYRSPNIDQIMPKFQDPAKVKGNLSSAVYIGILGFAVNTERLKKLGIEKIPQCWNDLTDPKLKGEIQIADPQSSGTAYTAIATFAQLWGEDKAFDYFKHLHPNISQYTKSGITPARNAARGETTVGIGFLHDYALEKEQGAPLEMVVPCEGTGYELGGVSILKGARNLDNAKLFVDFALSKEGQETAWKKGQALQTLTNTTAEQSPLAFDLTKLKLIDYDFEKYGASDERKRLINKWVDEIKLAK
Chain of AfuA (Actinobacillus pleuropneumoniae, UniProt A3N294, S64A) (A3N294 28-346 S64A): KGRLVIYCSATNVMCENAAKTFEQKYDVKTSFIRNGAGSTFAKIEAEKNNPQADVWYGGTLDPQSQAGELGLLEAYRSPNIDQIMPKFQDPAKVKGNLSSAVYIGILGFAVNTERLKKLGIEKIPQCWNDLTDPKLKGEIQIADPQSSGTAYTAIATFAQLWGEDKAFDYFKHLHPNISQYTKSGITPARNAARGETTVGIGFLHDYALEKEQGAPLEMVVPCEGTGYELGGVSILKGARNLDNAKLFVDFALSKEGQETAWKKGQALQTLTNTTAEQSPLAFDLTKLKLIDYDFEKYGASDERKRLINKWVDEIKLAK
T2 sequence (D2TKU7 entry or part of it): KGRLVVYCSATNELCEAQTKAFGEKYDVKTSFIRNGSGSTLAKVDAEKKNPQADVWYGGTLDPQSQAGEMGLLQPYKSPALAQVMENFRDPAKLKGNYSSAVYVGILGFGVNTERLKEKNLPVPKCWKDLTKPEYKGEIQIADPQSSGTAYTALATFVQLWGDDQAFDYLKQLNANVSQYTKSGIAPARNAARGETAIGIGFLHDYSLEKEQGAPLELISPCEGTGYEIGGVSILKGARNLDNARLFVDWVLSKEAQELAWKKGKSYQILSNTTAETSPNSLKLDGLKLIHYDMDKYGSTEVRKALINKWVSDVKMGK

The Kd is the constant that tells how readily two partners part at equilibrium. Take `O=P(O)(O)OC[C@H]1OC(O)(CO)[C@@H](O)[C@@H]1O` (some centres unmarked) [Fructose-6-phosphate]: on AfuA [1] (read-out: Kd), the Kd amounted to 8 ± 1 nM.

Turning to `O=P(O)(O)OC[C@H]1OC(O)[C@H](O)[C@@H](O)[C@@H]1O` (some centres unmarked) [Glucose-6-phosphate], the Kd is 164 ± 94 nM on C. rodentium AfuA; 23 ± 4 nM at AfuA [1] (read-out: Kd); 5500 ± 900 nM on AfuA [2]; 900 ± 100 nM on AfuA [3]; 3300 ± 200 nM at AfuA [4].

Consider `O=P(O)(O)OC[C@H]1OC(O)[C@@H](O)[C@@H](O)[C@@H]1O` (some centres unmarked) [Mannose-6-phosphate], for which the equilibrium dissociation constant (Kd) at AfuA [1] (read-out: Kd) was 960 ± 150 nM.

For `O=P(O)(O)OC[C@@H](O)[C@H]1OC(O)(CO)[C@@H](O)[C@@H]1O` (some centres unmarked) [Sedoheptulose-7-phosphate], at AfuA [1], the Kd worked out at 57 ± 22 nM.
